Measurements taken from PubChem BioAssay (NCI).
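Following 48 hours of exposure in 96-well plates, responses at five concentrations were used to interpolate endpoints linearly. TGI: concentration producing complete growth inhibition.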

Experiments:
Test in all cases: NCI anticancer screen, dose series, 48 h
786-0 renal = system: 786-0 renal
A498 renal = system: A498 renal
A549 NSCLC = system: A549 NSCLC
ACHN renal = system: ACHN renal
CAKI-1 renal = system: CAKI-1 renal
CCRF-CEM leukemia = system: CCRF-CEM leukemia
COLO 205 colon = system: COLO 205 colon
DU-145 prostate = system: DU-145 prostate
EKVX NSCLC = system: EKVX NSCLC
HCC-2998 colon = system: HCC-2998 colon
HCT-116 colon = system: HCT-116 colon
HCT-15 colon = system: HCT-15 colon
HL-60(TB) leukemia = system: HL-60(TB) leukemia
HOP-62 NSCLC = system: HOP-62 NSCLC
HOP-92 NSCLC = system: HOP-92 NSCLC
HS 578T breast = system: HS 578T breast
HT29 colon = system: HT29 colon
IGROV1 ovarian = system: IGROV1 ovarian
K-562 leukemia = system: K-562 leukemia
KM12 colon = system: KM12 colon
LOX IMVI melanoma = system: LOX IMVI melanoma
M14 melanoma = system: M14 melanoma
MALME-3M melanoma = system: MALME-3M melanoma
MCF7 breast = system: MCF7 breast
MDA-MB-231 breast = system: MDA-MB-231 breast
MDA-MB-435 = system: MDA-MB-435
MDA-N = system: MDA-N
MOLT-4 leukemia = system: MOLT-4 leukemia
NCI-H226 lung = system: NCI-H226 lung
NCI-H23 lung = system: NCI-H23 lung
NCI-H460 lung = system: NCI-H460 lung
NCI-H522 lung = system: NCI-H522 lung
NCI/ADR-RES ovarian = system: NCI/ADR-RES ovarian
OVCAR-3 ovarian = system: OVCAR-3 ovarian
OVCAR-4 ovarian = system: OVCAR-4 ovarian
OVCAR-5 ovarian = system: OVCAR-5 ovarian
OVCAR-8 ovarian = system: OVCAR-8 ovarian
PC-3 prostate = system: PC-3 prostate
RPMI-8226 leukemia = system: RPMI-8226 leukemia
RXF 393 renal = system: RXF 393 renal
SF-268 CNS = system: SF-268 CNS
SF-295 CNS = system: SF-295 CNS
SF-539 CNS = system: SF-539 CNS
SK-MEL-2 melanoma = system: SK-MEL-2 melanoma
SK-MEL-28 melanoma = system: SK-MEL-28 melanoma
SK-MEL-5 melanoma = system: SK-MEL-5 melanoma
SN12C renal = system: SN12C renal
SNB-19 CNS = system: SNB-19 CNS
SR leukemia = system: SR leukemia
SW-620 colon = system: SW-620 colon
T-47D breast = system: T-47D breast
TK-10 renal = system: TK-10 renal
U251 CNS = system: U251 CNS
UACC-257 melanoma = system: UACC-257 melanoma
UACC-62 melanoma = system: UACC-62 melanoma
UO-31 renal = system: UO-31 renal
SK-OV-3 ovarian = system: SK-OV-3 ovarian
SNB-75 CNS = system: SNB-75 CNS

CC1CC(C)CC(NC2=NCCO2)C1 (configuration not stated)
TGI (786-0 renal): > 100 µM | TGI (A498 renal): > 100 µM | TGI (A549 NSCLC): > 100 µM | TGI (ACHN renal): > 100 µM | TGI (CAKI-1 renal): > 100 µM | TGI (CCRF-CEM leukemia): > 100 µM | TGI (COLO 205 colon): > 100 µM | TGI (DU-145 prostate): > 100 µM | TGI (EKVX NSCLC): > 100 µM | TGI (HCC-2998 colon): > 100 µM | TGI (HCT-116 colon): > 100 µM | TGI (HCT-15 colon): > 100 µM | TGI (HL-60(TB) leukemia): > 100 µM | TGI (HOP-62 NSCLC): > 100 µM | TGI (HOP-92 NSCLC): > 100 µM | TGI (HS 578T breast): > 100 µM | TGI (HT29 colon): > 100 µM | TGI (IGROV1 ovarian): > 100 µM | TGI (K-562 leukemia): > 100 µM | TGI (KM12 colon): > 100 µM | TGI (LOX IMVI melanoma): > 100 µM | TGI (M14 melanoma): > 100 µM | TGI (MALME-3M melanoma): > 100 µM | TGI (MCF7 breast): > 100 µM | TGI (MDA-MB-231 breast): > 100 µM | TGI (MDA-MB-435): > 100 µM | TGI (MDA-N): > 100 µM | TGI (MOLT-4 leukemia): > 100 µM | TGI (NCI-H226 lung): > 100 µM | TGI (NCI-H23 lung): > 100 µM | TGI (NCI-H460 lung): > 100 µM | TGI (NCI-H522 lung): > 100 µM | TGI (NCI/ADR-RES ovarian): > 100 µM | TGI (OVCAR-3 ovarian): > 100 µM | TGI (OVCAR-4 ovarian): > 100 µM | TGI (OVCAR-5 ovarian): > 100 µM | TGI (OVCAR-8 ovarian): > 100 µM | TGI (PC-3 prostate): > 100 µM | TGI (RPMI-8226 leukemia): > 100 µM | TGI (RXF 393 renal): > 100 µM | TGI (SF-268 CNS): > 100 µM | TGI (SF-295 CNS): > 100 µM | TGI (SF-539 CNS): > 100 µM | TGI (SK-MEL-2 melanoma): > 100 µM | TGI (SK-MEL-28 melanoma): > 100 µM | TGI (SK-MEL-5 melanoma): > 100 µM | TGI (SN12C renal): > 100 µM | TGI (SNB-19 CNS): > 100 µM | TGI (SR leukemia): > 100 µM | TGI (SW-620 colon): > 100 µM | TGI (T-47D breast): > 100 µM | TGI (TK-10 renal): > 100 µM | TGI (U251 CNS): > 100 µM | TGI (UACC-257 melanoma): > 100 µM | TGI (UACC-62 melanoma): > 100 µM | TGI (UO-31 renal): > 100 µM

COc1cc(C=O)cc(/C=N/c2ccccn2)c1O
TGI (786-0 renal): > 100 µM | TGI (A498 renal): 31.3 µM | TGI (A549 NSCLC): > 100 µM | TGI (ACHN renal): 6.97 µM | TGI (CAKI-1 renal): 9.76 µM | TGI (CCRF-CEM leukemia): > 100 µM | TGI (COLO 205 colon): 29.5 µM | TGI (DU-145 prostate): > 100 µM | TGI (EKVX NSCLC): > 100 µM | TGI (HCC-2998 colon): > 100 µM | TGI (HCT-116 colon): > 100 µM | TGI (HCT-15 colon): > 100 µM | TGI (HL-60(TB) leukemia): 83.3 µM | TGI (HOP-62 NSCLC): 80 µM | TGI (HOP-92 NSCLC): 8.55 µM | TGI (HS 578T breast): 70.6 µM | TGI (HT29 colon): 55 µM | TGI (K-562 leukemia): > 100 µM | TGI (KM12 colon): > 100 µM | TGI (LOX IMVI melanoma): 30.9 µM | TGI (M14 melanoma): 62.2 µM | TGI (MALME-3M melanoma): 14.9 µM | TGI (MCF7 breast): > 100 µM | TGI (MDA-MB-231 breast): > 100 µM | TGI (MDA-MB-435): 41.4 µM | TGI (MDA-N): 35.6 µM | TGI (MOLT-4 leukemia): 88.7 µM | TGI (NCI-H226 lung): 38.4 µM | TGI (NCI-H23 lung): > 100 µM | TGI (NCI-H460 lung): 42.7 µM | TGI (NCI/ADR-RES ovarian): > 100 µM | TGI (OVCAR-3 ovarian): 59.1 µM | TGI (OVCAR-4 ovarian): > 100 µM | TGI (OVCAR-5 ovarian): > 100 µM | TGI (OVCAR-8 ovarian): 12 µM | TGI (PC-3 prostate): 25.6 µM | TGI (RPMI-8226 leukemia): 51.9 µM | TGI (RXF 393 renal): 4.97 µM | TGI (SF-268 CNS): 19 µM | TGI (SF-295 CNS): > 100 µM | TGI (SF-539 CNS): 8.84 µM | TGI (SK-MEL-2 melanoma): 10.5 µM | TGI (SK-MEL-28 melanoma): 21.9 µM | TGI (SK-MEL-5 melanoma): 11.4 µM | TGI (SK-OV-3 ovarian): 78 µM | TGI (SN12C renal): 88.8 µM | TGI (SNB-19 CNS): > 100 µM | TGI (SNB-75 CNS): 16.3 µM | TGI (SR leukemia): 34.5 µM | TGI (SW-620 colon): > 100 µM | TGI (T-47D breast): > 100 µM | TGI (TK-10 renal): > 100 µM | TGI (U251 CNS): 55.2 µM | TGI (UACC-257 melanoma): 55.3 µM | TGI (UACC-62 melanoma): > 100 µM | TGI (UO-31 renal): 14.1 µM
